The supplement of paper PMC10307832

What was measured:
Assay in all cases: relative viability (nuclei count vs DMSO), 5 days (fraction); higher = more cells survive
[1] = compound: CC(C)C[C@H](NC(=O)[C@H](CCc1ccccc1)NC(=O)CN1CCOCC1)C(=O)N[C@@H](Cc1ccccc1)C(=O)N[C@@H](CC(C)C)C(=O)[C@@]1(C)CO1 [Carfilzomib] + CC(=O)c1c(C)c2cnc(Nc3ccc(N4CCNCC4)cn3)nc2n(C2CCCC2)c1=O [Palbociclib] (partner 0.5 µM)
Method in brief: (§1)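 Each reported value is a median over duplicate plates. It expresses relative viability: treated-well nuclei count divided by vehicle-well nuclei count. Lung cancer cell lines in 1536-well plates were dosed by pin tool a day after seeding, alone with one drug or with a fixed anchor-drug dose plus five library-drug doses (not always all listed) in √10 steps, and nuclei were counted after 5 days.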

Crizotinib + OSI-027 = compound: C[C@@H](Oc1cc(-c2cnn(C3CCNCC3)c2)cnc1N)c1c(Cl)ccc(F)c1Cl [Crizotinib] + COc1cccc2cc(-c3nc([C@H]4CC[C@H](C(=O)O)CC4)n4ncnc(N)c34)[nH]c12 [OSI-027] (partner 0.5 µM)
Method in brief: as §1

Crizotinib + Pictilisib = compound: C[C@@H](Oc1cc(-c2cnn(C3CCNCC3)c2)cnc1N)c1c(Cl)ccc(F)c1Cl [Crizotinib] + CS(=O)(=O)N1CCN(Cc2cc3nc(-c4cccc5[nH]ncc45)nc(N4CCOCC4)c3s2)CC1 [Pictilisib] (partner 1 µM)
Method in brief: as §1

Crizotinib + Phenformin = compound: C[C@@H](Oc1cc(-c2cnn(C3CCNCC3)c2)cnc1N)c1c(Cl)ccc(F)c1Cl [Crizotinib] + N=C(N)NC(=N)NCCc1ccccc1 [Phenformin] (partner 250 µM)
Method in brief: as §1

Question: With NCI-H2023 as the cell line, how does the relative viability ([1]; first compound 0.001 µM) read?
Answer: 0.341

Question: What about the relative viability ([1]; first compound 0.003162 µM) of the same cell line?
Answer: 0.344

Question: And the relative viability ([1]; first compound 0.01 µM)?
Answer: 0.405

Question: And the relative viability ([1]; first compound 0.03162 µM)?
Answer: 0.235

Question: What about the relative viability ([1]; first compound 0.1 µM) of the same cell line?
Answer: 0.0653

Question: What about the relative viability (Crizotinib + OSI-027; first compound 0.01 µM) of the same cell line?
Answer: 0.354

Question: What about the relative viability (Crizotinib + OSI-027; first compound 0.03162 µM) of the same cell line?
Answer: 0.438

Question: And the relative viability (Crizotinib + OSI-027; first compound 0.1 µM)?
Answer: 0.359

Question: What about the relative viability (Crizotinib + OSI-027; first compound 0.3162 µM) of the same cell line?
Answer: 0.297

Question: What about the relative viability (Crizotinib + OSI-027; first compound 1 µM) of the same cell line?
Answer: 0.329

Question: What about the relative viability (Crizotinib + Pictilisib; first compound 0.01 µM) of the same cell line?
Answer: 0.225

Question: And the relative viability (Crizotinib + Pictilisib; first compound 0.03162 µM)?
Answer: 0.232

Question: And the relative viability (Crizotinib + Pictilisib; first compound 0.1 µM)?
Answer: 0.189

Question: And the relative viability (Crizotinib + Pictilisib; first compound 0.3162 µM)?
Answer: 0.192

Question: What about the relative viability (Crizotinib + Pictilisib; first compound 1 µM) of the same cell line?
Answer: 0.217

Question: What about the relative viability (Crizotinib + Phenformin; first compound 0.01 µM) of the same cell line?
Answer: 0.397

Question: And the relative viability (Crizotinib + Phenformin; first compound 0.03162 µM)?
Answer: 0.406

Question: And the relative viability (Crizotinib + Phenformin; first compound 0.1 µM)?
Answer: 0.409

Question: What about the relative viability (Crizotinib + Phenformin; first compound 0.3162 µM) of the same cell line?
Answer: 0.304

Question: What about the relative viability (Crizotinib + Phenformin; first compound 1 µM) of the same cell line?
Answer: 0.322

Question: How did the relative viability ([1]; first compound 0.001 µM) turn out when NCI-H2085 was run?
Answer: 0.501

Question: What about the relative viability ([1]; first compound 0.003162 µM) of the same cell line?
Answer: 0.47

Question: What about the relative viability ([1]; first compound 0.01 µM) of the same cell line?
Answer: 0.456

Question: What about the relative viability ([1]; first compound 0.03162 µM) of the same cell line?
Answer: 0.371

Question: What about the relative viability ([1]; first compound 0.1 µM) of the same cell line?
Answer: 0.265

Question: And the relative viability (Crizotinib + OSI-027; first compound 0.01 µM)?
Answer: 0.552

Question: What about the relative viability (Crizotinib + OSI-027; first compound 0.03162 µM) of the same cell line?
Answer: 0.985

Question: What about the relative viability (Crizotinib + OSI-027; first compound 0.1 µM) of the same cell line?
Answer: 0.66

Question: What about the relative viability (Crizotinib + OSI-027; first compound 1 µM) of the same cell line?
Answer: 0.748

Question: What about the relative viability (Crizotinib + Pictilisib; first compound 0.01 µM) of the same cell line?
Answer: 0.357

Question: What about the relative viability (Crizotinib + Pictilisib; first compound 0.03162 µM) of the same cell line?
Answer: 0.484

Question: And the relative viability (Crizotinib + Pictilisib; first compound 0.1 µM)?
Answer: 0.409

Question: And the relative viability (Crizotinib + Pictilisib; first compound 0.3162 µM)?
Answer: 0.437

Question: And the relative viability (Crizotinib + Pictilisib; first compound 1 µM)?
Answer: 0.451

Question: What about the relative viability (Crizotinib + Phenformin; first compound 0.01 µM) of the same cell line?
Answer: 0.626

Question: What about the relative viability (Crizotinib + Phenformin; first compound 0.03162 µM) of the same cell line?
Answer: 0.807

Question: And the relative viability (Crizotinib + Phenformin; first compound 0.1 µM)?
Answer: 0.703

Question: And the relative viability (Crizotinib + Phenformin; first compound 1 µM)?
Answer: 0.872

Question: Which relative viability ([1]; first compound 0.001 µM) does the source give for NCI-H2087 here?
Answer: 0.194

Question: And the relative viability ([1]; first compound 0.003162 µM)?
Answer: 0.343

Question: And the relative viability ([1]; first compound 0.01 µM)?
Answer: 0.192

Question: And the relative viability ([1]; first compound 0.03162 µM)?
Answer: 0.0427

Question: What about the relative viability ([1]; first compound 0.1 µM) of the same cell line?
Answer: 0.0568

Question: What about the relative viability (Crizotinib + OSI-027; first compound 0.01 µM) of the same cell line?
Answer: 0.442

Question: What about the relative viability (Crizotinib + OSI-027; first compound 0.03162 µM) of the same cell line?
Answer: 0.611

Question: What about the relative viability (Crizotinib + OSI-027; first compound 0.1 µM) of the same cell line?
Answer: 0.548

Question: What about the relative viability (Crizotinib + OSI-027; first compound 1 µM) of the same cell line?
Answer: 0.327

Question: What about the relative viability (Crizotinib + Pictilisib; first compound 0.01 µM) of the same cell line?
Answer: 0.693

Question: What about the relative viability (Crizotinib + Pictilisib; first compound 0.03162 µM) of the same cell line?
Answer: 0.909

Question: What about the relative viability (Crizotinib + Pictilisib; first compound 0.1 µM) of the same cell line?
Answer: 0.953

Question: And the relative viability (Crizotinib + Pictilisib; first compound 0.3162 µM)?
Answer: 0.42

Question: And the relative viability (Crizotinib + Pictilisib; first compound 1 µM)?
Answer: 0.943

Question: And the relative viability (Crizotinib + Phenformin; first compound 0.01 µM)?
Answer: 0.36

Question: And the relative viability (Crizotinib + Phenformin; first compound 0.03162 µM)?
Answer: 0.502

Question: What about the relative viability (Crizotinib + Phenformin; first compound 0.1 µM) of the same cell line?
Answer: 0.508

Question: What about the relative viability (Crizotinib + Phenformin; first compound 1 µM) of the same cell line?
Answer: 0.462

Question: NCI-H2126 was tested. Which relative viability ([1]; first compound 0.001 µM) did it give?
Answer: 0.374

Question: And the relative viability ([1]; first compound 0.003162 µM)?
Answer: 0.372

Question: And the relative viability ([1]; first compound 0.01 µM)?
Answer: 0.337

Question: What about the relative viability ([1]; first compound 0.03162 µM) of the same cell line?
Answer: 0.346

Question: What about the relative viability ([1]; first compound 0.1 µM) of the same cell line?
Answer: 0.278

Question: What about the relative viability (Crizotinib + OSI-027; first compound 0.01 µM) of the same cell line?
Answer: 0.638

Question: What about the relative viability (Crizotinib + OSI-027; first compound 0.03162 µM) of the same cell line?
Answer: 0.7

Question: And the relative viability (Crizotinib + OSI-027; first compound 0.1 µM)?
Answer: 0.714

Question: What about the relative viability (Crizotinib + OSI-027; first compound 0.3162 µM) of the same cell line?
Answer: 0.654

Question: And the relative viability (Crizotinib + OSI-027; first compound 1 µM)?
Answer: 0.621

Question: And the relative viability (Crizotinib + Pictilisib; first compound 0.01 µM)?
Answer: 0.456

Question: And the relative viability (Crizotinib + Pictilisib; first compound 0.03162 µM)?
Answer: 0.5

Question: And the relative viability (Crizotinib + Pictilisib; first compound 0.1 µM)?
Answer: 0.481

Question: What about the relative viability (Crizotinib + Pictilisib; first compound 0.3162 µM) of the same cell line?
Answer: 0.429

Question: What about the relative viability (Crizotinib + Pictilisib; first compound 1 µM) of the same cell line?
Answer: 0.48

Question: What about the relative viability (Crizotinib + Phenformin; first compound 0.01 µM) of the same cell line?
Answer: 0.464

Question: And the relative viability (Crizotinib + Phenformin; first compound 0.03162 µM)?
Answer: 0.591

Question: What about the relative viability (Crizotinib + Phenformin; first compound 0.1 µM) of the same cell line?
Answer: 0.511

Question: And the relative viability (Crizotinib + Phenformin; first compound 0.3162 µM)?
Answer: 0.528

Question: And the relative viability (Crizotinib + Phenformin; first compound 1 µM)?
Answer: 0.507
